Test results reported in US5679695A, “Aryl and heteroaryl compounds having anti-retrovirus activity” (The University of Connecticut, priority 1995, dated 1997).
“And” between values parts separate entries of the source, which are not always exact repeats. Equal entries are not always repeated. Where two headings read alike, the source gives them in different places.

Columns and labels:
[1] = Storage in a clear glass bottle; type: physicochemical; conditions: several weeks of storage in a clear glass bottle
[2] = system: HIV-1; experiment: microbe, parasite or virus in culture; type: cell-based; conditions: for viability at 17.9 µM: 1.79 × 10^-5 Molar
Protocol: (§1) Another assay for testing the efficacy of the compounds is the procedure* used in the National Cancer Institute's test for agents active against Human Immunodeficiency Virus (HIV). It is designed to detect agents acting at any stage of the virus reproductive cycle. The assay basically involves the killing of T4 lymphocytes by HIV. Small amounts of HIV are added to cells, and a complete cycle of virus reproduction is necessary to obtain the required cell killing. Agents that interact with virions, cells, or virus gene-products to interfere with viral activities will protect cells from cytolysis. The system is automated in several features to accommodate large numbers of candidate agents and is generally designed to detect anti-HIV activity. However, compounds that degenerate, or are rapidly metabolized in the culture conditions may not show activity in this screen. All tests are compared with at least one positive (e.g., AZT-treated) control done at the same time under identical conditions.
(§2) * Weislow. O. W., Kiser, R., Fine, D., Bader, J., Shoemaker, R. H., Boyd, M. R.: New soluble-formazan assay for HIV-1 cytopathic effects: application to high-flux screening of synthetic and natural products for AIDS-antiviral activity. J. Natl. Cancer Inst. 81:577-586, 1989.
(§3) 1. The Candidate agent is dissolved in dimethyl sulfoxide (unless otherwise instructed) then diluted 1:100 in cell culture medium before preparing serial half-log10 dilutions. T4 lymphocytes (CEM cell line) are added and after a brief interval HIV-1 added, resulting in a 1:200 final dilution of the compound. Uninfected cells with the compound serve as a toxicity control, and infected and uninfected cells without compound serve as basic controls.
(§4) 2. Cultures are incubated at 37° in a 5% carbon dioxide atmosphere for 6 days.
(§5) 3. The tetrazolium salt, XTT, is added to all wells, and cultures are incubated to allow formazan color development by viable cells.
(§6) 4. Individual wells are analyzed spectrophotometrically to quantitate formazan production, and in addition are viewed microscopically for detection of viable cells and confirmation of protective activity.
(§7) 5. Drug-treated virus-infected cells are compared with drug-treated noninfected cells and with other appropriate controls (untreated infected and untreated noninfected: cells, drug-containing wells without cells, etc.) on the same plate.
(§8) 6. Data are reviewed in comparison with other tests done at the same time and a determination about activity is made.

[3] = system: CEM-Z; experiment: XTT toxicity control, uninfected culture, CEM-Z; type: cell-based
Protocol: as §1, §2, §3, §4, §5, §6, §7, §8

[4] = XTT toxicity control, uninfected culture, CEM-Z; type: cell-based; conditions: human, cem-z cells, read-out: Uninfected culture response
Protocol: as §1, §2, §3, §4, §5, §6, §7, §8

Cc1ccc(S(=O)(=O)c2ccccc2[N+](=O)[O-])cc1 [Compound 2, 1-(4-Methylphenylsulfonyl)-2-nitrobenzene]
colour change on storage [1]: turned light green

O=[N+]([O-])c1ccccc1S(=O)(=O)c1ccccc1 [Compound 1, 1-Nitro-2-(phenylsulfonyl)benzene]
Conclusion ([2]; CEM-V): ACTIVE | Infected culture response ([2]; CEM-V, 1.79 × 10^-6 Molar, 1.79 µM): 9.3% | Infected culture response ([2]; CEM-V, 1.79 × 10^-7 Molar, 0.179 µM): 8.7% | Infected culture response ([2]; CEM-V, 1.89 × 10^-4 Molar, 189 µM): 87.3% | Infected culture response ([2]; CEM-V, 1.89 × 10^-5 Molar, 18.9 µM): 110.5% | Infected culture response ([2]; CEM-V, 1.89 × 10^-6 Molar, 1.89 µM): 11.4% | Infected culture response ([2]; CEM-V, 1.90 × 10^-7 Molar, 0.19 µM): 12.1% | Infected culture response ([2]; CEM-V, 5.66 × 10^-6 Molar, 5.66 µM): 36.6% | Infected culture response ([2]; CEM-V, 5.67 × 10^-7 Molar, 0.567 µM): 8.3% | Infected culture response ([2]; CEM-V, 5.68 × 10^-8 Molar, 0.0568 µM): 9.4% | Infected culture response ([2]; CEM-V, 5.98 × 10^-5 Molar, 59.8 µM): 95.2% | Infected culture response ([2]; CEM-V, 5.99 × 10^-6 Molar, 5.99 µM): 65.3% and 90.9% | Infected culture response ([2]; CEM-V, 6.00 × 10^-7 Molar, 0.6 µM): 8.3% | Infected culture response ([2]; CEM-V, 6.01 × 10^-8 Molar, 0.0601 µM): 8.7% | Conclusion ([2]; CEM-Z): ACTIVE | Infected culture response ([2]; CEM-Z, 1.79 × 10^-6 Molar, 1.79 µM): 47.1% and 26.4% | Infected culture response ([2]; CEM-Z, 5.65 × 10^-5 Molar, 56.5 µM): 93.1% | Infected culture response ([2]; CEM-Z, 5.66 × 10^-6 Molar, 5.66 µM): 58.3% | viability at 17.9 µM ([2]; Human immunodeficiency virus 1, CEM-V, read-out: Infected culture response): 92.2% | viability at 1.79 µM ([2]; Human immunodeficiency virus 1, CEM-V, 1.79 × 10^-6 Molar, read-out: Infected culture response): 8% | viability at 0.179 µM ([2]; Human immunodeficiency virus 1, CEM-V, 1.79 × 10^-7 Molar, read-out: Infected culture response): 10.3% | viability at 189 µM ([2]; Human immunodeficiency virus 1, CEM-V, 1.89 × 10^-4 Molar, read-out: Infected culture response): 86% | viability at 18.9 µM ([2]; Human immunodeficiency virus 1, CEM-V, 1.89 × 10^-5 Molar, read-out: Infected culture response): 100% | viability at 1.89 µM ([2]; Human immunodeficiency virus 1, CEM-V, 1.89 × 10^-6 Molar, read-out: Infected culture response): 18.2% | viability at 0.19 µM ([2]; Human immunodeficiency virus 1, CEM-V, 1.90 × 10^-7 Molar, read-out: Infected culture response): 14% | viability at 5.66 µM ([2]; Human immunodeficiency virus 1, CEM-V, 5.66 × 10^-6 Molar, read-out: Infected culture response): 31.1% | viability at 0.567 µM ([2]; Human immunodeficiency virus 1, CEM-V, 5.67 × 10^-7 Molar, read-out: Infected culture response): 10.6% | viability at 0.0568 µM ([2]; Human immunodeficiency virus 1, CEM-V, 5.68 × 10^-8 Molar, read-out: Infected culture response): 10.1% | viability at 59.8 µM ([2]; Human immunodeficiency virus 1, CEM-V, 5.98 × 10^-5 Molar, read-out: Infected culture response): 79.7% | viability at 0.6 µM ([2]; Human immunodeficiency virus 1, CEM-V, 6.00 × 10^-7 Molar, read-out: Infected culture response): 15.5% | viability at 0.0601 µM ([2]; Human immunodeficiency virus 1, CEM-V, 6.01 × 10^-8 Molar, read-out: Infected culture response): 14.7% | viability at 1.79 µM ([2]; Human immunodeficiency virus 1, CEM-V, dose printed 1.79 × 10^-6 Molar in the line between 5.66 × 10^-6 and 5.65 × 10^-5, read-out: Infected culture response): 53.1% | viability at 17.9 µM ([2]; Human immunodeficiency virus 1, CEM-Z, read-out: Infected culture response): 85.7% | viability at 56.5 µM ([2]; Human immunodeficiency virus 1, CEM-Z, 5.65 × 10^-5 Molar, read-out: Infected culture response): 92.3% | viability at 5.66 µM ([2]; Human immunodeficiency virus 1, CEM-Z, 5.66 × 10^-6 Molar, read-out: Infected culture response): 74.5% | viability at 1.79 µM ([2]; Human immunodeficiency virus 1, CEM-Z, dose printed 1.79 × 10^-6 Molar in the line between 5.66 × 10^-6 and 5.65 × 10^-5, read-out: Infected culture response): 91.3% | Uninfected culture response ([3]; 1.78 × 10^-4 Molar, 178 µM): 72.1% | Uninfected culture response ([3]; 1.79 × 10^-5 Molar, 17.9 µM): 103.0% | Uninfected culture response ([3]; 1.79 × 10^-6 Molar, 1.79 µM): 99.7% | Uninfected culture response ([3]; 1.79 × 10^-7 Molar, 0.179 µM): 102.5% | Uninfected culture response ([3]; 5.65 × 10^-5 Molar, 56.5 µM): 101.8% | Uninfected culture response ([3]; 5.66 × 10^-6 Molar, 5.66 µM): 100.0% | Uninfected culture response ([3]; 5.67 × 10^-7 Molar, 0.567 µM): 99.8% | Uninfected culture response ([3]; 5.68 × 10^-8 Molar, 0.0568 µM): 104.3% | IC50 ([3]; uninfected culture (toxicity)): > 178 µM | viability at 17.9 µM ([4]; 1.79 × 10^-5 Molar): 101% | viability at 1.79 µM ([4]; 1.79 × 10^-6 Molar): 97.9% | viability at 0.179 µM ([4]; 1.79 × 10^-7 Molar): 101% | viability at 56.5 µM ([4]; 5.65 × 10^-5 Molar): 103% | viability at 5.66 µM ([4]; 5.66 × 10^-6 Molar): 98.7% | viability at 0.567 µM ([4]; 5.67 × 10^-7 Molar): 99.6% | viability at 0.0568 µM ([4]; 5.68 × 10^-8 Molar): 101%
